Results: PubChem BioAssay AID330 (DTP/NCI, 2004)
Where “and” joins values, the source holds several entries; their conditions need not be identical. Equal entries are not always repeated. Toxic doses and inconclusive results are not listed.

Tested on: P388 leukemia ip, CD2F1 mice, survival T/C
Test: NCI In Vivo Anticancer Drug Screen. Data for tumor model P388 Leukemia (intraperitoneal) in CD2F1 (CDF1) mice
Conditions: endpoint: median survival time, higher = longer survival
Method in brief: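 Mice carrying the transplanted tumor received test compound or vehicle. Survival was recorded in each group, and the value is the treated-group measurement divided by that of the vehicle-treated control group.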

[1] = dose: 50.0 mg/kg/injection, schedule: Q01DX009 (ip), vehicle: Klucel (hydroxypropylcellulose) (HPC)
[2] = dose: 100.0 mg/kg/injection, schedule: Q01DX009 (ip), vehicle: Klucel (hydroxypropylcellulose) (HPC)
[3] = dose: 200.0 mg/kg/injection, schedule: Q01DX009 (ip), vehicle: Klucel (hydroxypropylcellulose) (HPC)
[4] = dose: 60.0 mg/kg/injection, schedule: Q01DX005 (ip), vehicle: saline
[5] = dose: 120.0 mg/kg/injection, schedule: Q01DX005 (ip), vehicle: saline
[6] = dose: 240.0 mg/kg/injection, schedule: Q01DX005 (ip), vehicle: saline
[7] = dose: 12.5 mg/kg/injection, schedule: Q01DX005 (ip), vehicle: Klucel (hydroxypropylcellulose) (HPC)
[8] = dose: 25.0 mg/kg/injection, schedule: Q01DX005 (ip), vehicle: Klucel (hydroxypropylcellulose) (HPC)
[9] = dose: 100.0 mg/kg/injection, schedule: Q04DX003 (ip), vehicle: saline with Tween-80
[10] = dose: 200.0 mg/kg/injection, schedule: Q04DX003 (ip), vehicle: saline with Tween-80
[11] = dose: 400.0 mg/kg/injection, schedule: Q04DX003 (ip), vehicle: saline with Tween-80
[12] = dose: 100.0 mg/kg/injection, schedule: Q04DX002 (ip), vehicle: saline with Tween-80
[13] = dose: 50.0 mg/kg/injection, schedule: Q01DX009 (ip), vehicle: saline
[14] = dose: 100.0 mg/kg/injection, schedule: Q01DX009 (ip), vehicle: saline
[15] = dose: 200.0 mg/kg/injection, schedule: Q01DX009 (ip), vehicle: saline
[16] = dose: 60.0 mg/kg/injection, schedule: Q01DX005 (ip), vehicle: Klucel (hydroxypropylcellulose) (HPC)
[17] = dose: 120.0 mg/kg/injection, schedule: Q01DX005 (ip), vehicle: Klucel (hydroxypropylcellulose) (HPC)
[18] = dose: 240.0 mg/kg/injection, schedule: Q01DX005 (ip), vehicle: Klucel (hydroxypropylcellulose) (HPC)
[19] = dose: 50.0 mg/kg/injection, schedule: Q01DX005 (ip), vehicle: Klucel (hydroxypropylcellulose) (HPC)
[20] = dose: 100.0 mg/kg/injection, schedule: Q01DX005 (ip), vehicle: Klucel (hydroxypropylcellulose) (HPC)
[21] = dose: 50.0 mg/kg/injection, schedule: Q01DX009 (ip), vehicle: saline with Tween-80
[22] = dose: 100.0 mg/kg/injection, schedule: Q01DX009 (ip), vehicle: saline with Tween-80
[23] = dose: 200.0 mg/kg/injection, schedule: Q01DX009 (ip), vehicle: saline with Tween-80

OC1OCC2CC3c4cc5c(cc4CCN3CC21)OCO5 (stereo unspecified)
T/C (dose: 0.63 mg/kg/injection, schedule: Q01DX009 (ip), vehicle: distilled water + Tween-80): 103 % of control
T/C (dose: 1.25 mg/kg/injection, schedule: Q01DX009 (ip), vehicle: distilled water + Tween-80): 109 % of control
T/C (dose: 2.5 mg/kg/injection, schedule: Q01DX009 (ip), vehicle: distilled water + Tween-80): 108 % of control
T/C (dose: 5.0 mg/kg/injection, schedule: Q01DX009 (ip), vehicle: distilled water + Tween-80): 100 % of control
T/C (dose: 10.0 mg/kg/injection, schedule: Q01DX009 (ip), vehicle: distilled water + Tween-80): 103 % of control
T/C (dose: 20.0 mg/kg/injection, schedule: Q01DX009 (ip), vehicle: distilled water + Tween-80): 103 % of control

CSc1ccccc1P(c1ccccc1)c1ccccc1
T/C [1]: 109 % of control
T/C [2]: 115 % of control
T/C [3]: 105 % of control

CCOC(=O)/C(C#N)=C/P(=O)(OCC)OCC
T/C (dose: 3.12 mg/kg/injection, schedule: Q04DX003 (ip), vehicle: Klucel (hydroxypropylcellulose) (HPC)): 101 % of control
T/C (dose: 6.25 mg/kg/injection, schedule: Q04DX003 (ip), vehicle: Klucel (hydroxypropylcellulose) (HPC)): 100 % of control
T/C (dose: 12.5 mg/kg/injection, schedule: Q04DX003 (ip), vehicle: Klucel (hydroxypropylcellulose) (HPC)): 99 % of control

O=C1N/C(=N/OF)C(F)C(NO)N1 (stereo unspecified)
T/C [1]: 103 % of control
T/C [2]: 103 % of control
T/C [3]: 101 % of control

COc1nc(NC2OCC(O)C(O)C2O)c(C=O)c(=O)n1C (stereo unspecified)
T/C [4]: 100 % of control
T/C [5]: 90 % of control
T/C [6]: 90 % of control

O=C(Nc1ccc(Cl)c(Cl)c1)Nc1ccc(Oc2ccc(Cl)cc2Cl)cc1S(=O)(=O)O
T/C (dose: 100.0 mg/kg/injection, schedule: Q04DX003 (ip), vehicle: Klucel (hydroxypropylcellulose) (HPC)): 91 % of control
T/C (dose: 200.0 mg/kg/injection, schedule: Q04DX003 (ip), vehicle: Klucel (hydroxypropylcellulose) (HPC)): 100 % of control
T/C (dose: 400.0 mg/kg/injection, schedule: Q04DX003 (ip), vehicle: Klucel (hydroxypropylcellulose) (HPC)): 95 % of control

O=C1C=C(NCCCC2CCCN3CCCCC23)C(=O)c2ccccc21 (stereo unspecified)
T/C (dose: 6.25 mg/kg/injection, schedule: Q01DX005 (ip), vehicle: Klucel (hydroxypropylcellulose) (HPC)): 95 % of control
T/C [7]: 98 % of control
T/C [8]: 98 % of control

Nc1c(Cl)cc(Cl)c(-c2c(Cl)cc(Cl)c([N+](=O)[O-])c2Cl)c1Cl
T/C [1]: 103 % of control
T/C [2]: 93 % of control
T/C [3]: 100 % of control

NC(=O)Nc1n[nH]c(-c2ccccc2)n1
T/C [9]: 90 % of control
T/C [10]: 90 % of control
T/C [11]: 90 % of control

CC(=O)CCNc1ccc(O)c2c1C(=O)c1ccccc1C2=O
T/C (dose: 25.0 mg/kg/injection, schedule: Q04DX002 (ip), vehicle: saline with Tween-80): 100 % of control
T/C (dose: 50.0 mg/kg/injection, schedule: Q04DX002 (ip), vehicle: saline with Tween-80): 101 % of control
T/C [12]: 94 % of control
T/C (dose: 200.0 mg/kg/injection, schedule: Q04DX002 (ip), vehicle: saline with Tween-80): 100 % of control

O=[N+]([O-])c1ccc(SC(=S)N2CCCCC2)c([N+](=O)[O-])c1
T/C [1]: 105 % of control
T/C [2]: 106 % of control
T/C [3]: 111 % of control

Cl[Si](Cl)(Cl)CCc1ccccn1
T/C (dose: 25.0 mg/kg/injection, schedule: Q01DX009 (ip), vehicle: saline): 99 % of control
T/C [13]: 86 % of control
T/C [14]: 95 % of control
T/C [15]: 100 % of control

NC(=O)Cc1nc(O)cs1
T/C [16]: 102 % of control
T/C [17]: 101 % of control
T/C [18]: 109 % of control

CSC(=S)N/N=C\c1c(CO)cnc(C)c1O
T/C [12]: 116 % of control
T/C (dose: 400.0 mg/kg/injection, schedule: Q04DX002 (ip), vehicle: saline with Tween-80): 113 % of control

NNS(=O)(=O)c1cc(Cl)c(Cl)cc1Cl
T/C [1]: 94 % of control
T/C [2]: 98 % of control
T/C [3]: 95 % of control

COC(=O)CC(O)(CCCC(C)(C)O)C(=O)OC1C(OC)=CC23CCCN2CCc2cc4c(cc2C13)OCO4 (stereo unspecified) (tested in a mixture with another compound)
T/C (dose: 0.5 mg/kg/injection, schedule: Q01DX009 (ip), vehicle: saline with Tween-80): 153 % of control
T/C (dose: 1.0 mg/kg/injection, schedule: Q01DX009 (ip), vehicle: saline with Tween-80): 201 % of control
T/C (dose: 2.0 mg/kg/injection, schedule: Q01DX009 (ip), vehicle: saline with Tween-80): 206 % of control

COc1cc2c3c(c1)-c1c(ccc(OC)c1O)CC3N(C)CC2 (stereo unspecified)
T/C (dose: 6.25 mg/kg/injection, schedule: Q04DX003 (ip), vehicle: DMSO): 101 % of control
T/C (dose: 12.5 mg/kg/injection, schedule: Q04DX003 (ip), vehicle: DMSO): 101 % of control
T/C (dose: 25.0 mg/kg/injection, schedule: Q04DX003 (ip), vehicle: DMSO): 100 % of control
T/C (dose: 50.0 mg/kg/injection, schedule: Q04DX003 (ip), vehicle: DMSO): 100 % of control

O=C/C(=C\O)NC(=O)c1ccccc1C(=O)O
T/C [16]: 99 % of control
T/C [17]: 99 % of control
T/C [18]: 92 % of control

CCN(CC)CCN1C(=O)c2cccc3cc([N+](=O)[O-])cc(c23)C1=O
T/C [7]: 107 % of control
T/C [8]: 124 % of control
T/C [19]: 156 % of control
T/C [20]: 195 % of control

CC(=O)CC(c1ccc(Cl)cc1)C(C#N)c1ccccc1 (stereo unspecified)
T/C [1]: 89 % of control
T/C [2]: 91 % of control
T/C [3]: 86 % of control

COC(=O)Cn1/c(=N\N=C\c2ccc([N+](=O)[O-])cc2)sc2ccccc21
T/C (dose: 12.5 mg/kg/injection, schedule: Q01DX001 (ip), vehicle: saline with Tween-80): 86 % of control
T/C (dose: 25.0 mg/kg/injection, schedule: Q01DX001 (ip), vehicle: saline with Tween-80): 86 % of control
T/C (dose: 50.0 mg/kg/injection, schedule: Q01DX001 (ip), vehicle: saline with Tween-80): 92 % of control
T/C (dose: 400.0 mg/kg/injection, schedule: Q01DX001 (ip), vehicle: saline with Tween-80): 90 % of control

O=C(O)C12C=CC(CC1)CC2
T/C [16]: 99 % of control
T/C [17]: 105 % of control
T/C [18]: 100 % of control

Nc1nc(C2CCCC2)c(I)c(=O)[nH]1
T/C [19]: 105 % of control
T/C [20]: 108 % of control
T/C (dose: 200.0 mg/kg/injection, schedule: Q01DX005 (ip), vehicle: Klucel (hydroxypropylcellulose) (HPC)): 92 % of control

CCOC(=O)C(C[N+](=O)[O-])(NC(=O)c1ccccc1)C(=O)OCC
T/C [4]: 104 % of control
T/C [5]: 105 % of control
T/C [6]: 99 % of control

CCCC1(c2ccccc2)CCCC(C#N)C1=O (stereo unspecified)
T/C (dose: 100.0 mg/kg/injection, schedule: Q04DX002 (ip), vehicle: Klucel (hydroxypropylcellulose) (HPC)): 104 % of control
T/C (dose: 200.0 mg/kg/injection, schedule: Q04DX002 (ip), vehicle: Klucel (hydroxypropylcellulose) (HPC)): 107 % of control
T/C (dose: 400.0 mg/kg/injection, schedule: Q04DX002 (ip), vehicle: Klucel (hydroxypropylcellulose) (HPC)): 106 % of control

CC(C)CCOC(=O)CN(CC(=O)OCCC(C)C)c1ccccc1
T/C [9]: 104 % of control
T/C [10]: 100 % of control
T/C [11]: 95 % of control

CCCCC[CH2][Ge]([CH2]CCC)([CH2]CCC)[CH]1CCCCC1
T/C [13]: 106 % of control
T/C [14]: 103 % of control
T/C [15]: 95 % of control

CCOc1cc2c(Cl)ncnc2c(OCC)c1OCC
T/C [21]: 105 % of control
T/C [22]: 91 % of control
T/C [23]: 106 % of control

CCOC(=O)c1ccccc1OP(=O)(N(C)C)N(C)C
T/C [21]: 99 % of control and 100 % of control and 108 % of control
T/C [22]: 99 % of control and 109 % of control and 97 % of control
T/C [23]: 99 % of control and 103 % of control and 109 % of control

O=C1CSC(COc2ccc(Cl)cc2Cl)O1 (stereo unspecified)
T/C (dose: 25.0 mg/kg/injection, schedule: Q01DX009 (ip), vehicle: Klucel (hydroxypropylcellulose) (HPC)): 100 % of control
T/C [1]: 97 % of control
